Results published in patent US20240301319A1, “PERFUMING COMPOSITIONS” (FIRMNICH SA, priority 2017, published 2024).

Key:
[1] = Volatility of perfuming compounds (Tables 4 to 10), with top/middle/bottom note type; format: physicochemical
Method in brief: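 Volatility is expressed in μg/l in air. Top notes are 70,000 to 100 μg/l, middle notes 99 to 50 μg/l, and bottom notes 49 to 0.1 μg/l. Compounds are grouped by olfactive family: watery, green, fruity, citrus, sweet, gourmand and woody.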

[2] = Odor threshold and odor value of perfuming compounds (Tables 4 to 10)
[3] = Table 8, perfuming compounds having a sweet note
[4] = Table 8, perfuming compounds having a sweet note, note type by volatility
[5] = Table 9, perfuming compounds having a gourmand note, note type by volatility
[6] = Table 10, perfuming compounds having a woody note, note type by volatility
[7] = note type (Top/Middle/Bottom) by volatility, perfuming compounds having a green note
[8] = perfuming compounds having a green note
[9] = Table 6, perfuming compounds having a fruity note
[10] = Table 6, perfuming compounds having a fruity note, note type by volatility
[11] = Table 4, watery note, top, middle or bottom note
[12] = Table 4, watery note, equals volatility divided by odor threshold
[13] = Table 7, citrus note, top, middle or bottom note
[14] = Table 7, citrus note, equals volatility divided by odor threshold

Row | Compound | Type [1, 7] | Volatility (μg/l air) [1, 8] | Odor Threshold (μg/l air) [2, 8] | Volatility [1, 9] | Type [1, 10] | Odor Threshold [2, 9] | Odor Value [2, 9] | further results
1 | CCC(=O)/C=C/C1=C(C)CCCC1(C)C |  |  |  |  |  |  |  | Volatility [1, 3]: 15.81 μg/l air; Type [1, 4]: Bottom; Volatility ([1]; Table 9, gourmand note): 15.81 μg/l air; Type [1, 5]: Bottom; Odor Threshold [2, 3]: 1.16E−04 μg/l air; Odor Value [2, 3]: 1.37E+05; Odor Threshold ([2]; Table 9, gourmand note): 1.16E−04 μg/l air
2 | COC(OC)C(C)(C)CC=C(C)C |  |  |  |  |  |  |  | Type [1, 6]: Top; Volatility ([1]; Table 10, woody note): 1311.32 μg/l air; Odor Threshold ([2]; Table 10, woody note): 1.26E−02 μg/l air
3 | CC1CC(C)(C)OC(Cc2ccccc2)O1 (centres unmarked) | Bottom | 29.99 μg/l air | 5.26E−02 μg/l air |  |  |  |  | 
4 | C=CCOC(=O)CCC1CCCCC1 [ALLYL 3-CYCLOHEXYLPROPANOATE] | Middle | 75.80 μg/l air | 7.96E−03 μg/l air | 75.80 μg/l air | Middle | 7.96E−03 μg/l air | 9.53E+03 | Volatility [1, 3]: 75.80 μg/l air; Type [1, 4]: Middle; Volatility ([1]; Table 9, gourmand note): 75.80 μg/l air; Type [1, 5]: Middle; Odor Threshold [2, 3]: 7.96E−03 μg/l air; Odor Value [2, 3]: 9.53E+03; Odor Threshold ([2]; Table 9, gourmand note): 7.96E−03 μg/l air
5 | COc1nccnc1CC(C)C [PYRAZOBUTYLE] | Top | 1617.21 μg/l air | 7.20E−07 μg/l air |  |  |  |  | 
6 | COC(=O)C1C(C)=CCCC1(C)C (racemic) | Top | 2010.91 μg/l air | 1.06E−02 μg/l air |  |  |  |  | 
7 | COc1ccc(C(C)=O)cc1 [1-(4-METHOXYPHENYL)-1-ETHANONE″] | Middle | 50.21 μg/l air | 1.41E−04 μg/l air |  |  |  |  | 
8 | CCCCCCC#CC(=O)OC [METHYL 2-NONYNOATE] | Middle | 91.76 μg/l air | 1.60E−03 μg/l air |  |  |  |  | Volatility (μg/l air) ([1]; Table 4, watery note): 91.76 μg/l air; Type [1, 11]: middle (perfuming compounds having a volatility ranging from 99 to 50 μg/l in air are referred to as “middle notes”); Odor Threshold (μg/l air) ([2]; Table 4, watery note): 1.60E−03 μg/l air; Odor Value [2, 12]: 5.74E+04
9 | CCCCCCC1CCC(=O)O1 (racemic) [(+−)-4-DECANOLIDE] |  |  |  | 10.49 μg/l air | Bottom | 1.61E−04 μg/l air | 6.51E+04 | Volatility [1, 3]: 10.49 μg/l air; Type [1, 4]: Bottom; Volatility ([1]; Table 9, gourmand note): 10.49 μg/l air; Type [1, 5]: Bottom; Odor Threshold [2, 3]: 1.61E−04 μg/l air; Odor Value [2, 3]: 6.51E+04; Odor Threshold ([2]; Table 9, gourmand note): 1.61E−04 μg/l air
10 | CCCCC[C@H]1C(=O)CC[C@@H]1CC(=O)OC (racemic) [methyl 2-((1RS,2RS)-3-oxo-2-pentylcyclopentyl)acetate] |  |  |  |  |  |  |  | Volatility (μg/l air) ([1]; Table 7, citrus note): 2.12 μg/l air; Type [1, 13]: Bottom; Odor Threshold (μg/l air) ([2]; Table 7, citrus note): 5.77E−04 μg/l air; Odor Value [2, 14]: 3.67E+03
11 | CCOC(=O)C(C)CC (racemic) [(+−)-ethyl 2-methylbutanoate] | Top | 83769.16 μg/l air | 1.26E−04 μg/l air | 83769.16 μg/l air | TOP (perfuming compounds having a volatility ranging from 70,000 to 100 μg/l in air are referred to as “top notes”) |  |  | 
12 | 3-(4-ETHYLPHENYL)-2,2-DIMETHYLPROPANAL (A) + 3-(2-ETHYLPHENYL)-2,2-DIMETHYLPROPANAL (B) |  |  |  |  |  |  |  | Volatility (μg/l air) ([1]; Table 4, watery note): 48.69 μg/l air; Type [1, 11]: bottom (perfuming compounds having a volatility ranging from 49 to 0.1 μg/l in air are referred to as “bottom notes”); Odor Threshold (μg/l air) ([2]; Table 4, watery note): 5.33E−03 μg/l air; Odor Value [2, 12]: 9.14E+03
13 | CC(C)c1cccc(C(C)CC=O)c1 (racemic) [(+−)-3-(3-ISOPROPYL-1-PHENYL)BUTANAL] | Bottom | 14.74 μg/l air | 7.71E−04 μg/l air |  |  |  |  | Volatility (μg/l air) ([1]; Table 4, watery note): 14.74 μg/l air; Type [1, 11]: bottom (perfuming compounds having a volatility ranging from 49 to 0.1 μg/l in air are referred to as “bottom notes”); Odor Threshold (μg/l air) ([2]; Table 4, watery note): 7.71E−04 μg/l air; Odor Value [2, 12]: 1.91E+04
14 | C=CCOC(=O)CCCCCC [ALLYL HEPTANOATE] | Top | 1235.24 μg/l air | 1.75E−02 μg/l air | 1235.24 μg/l air | TOP (perfuming compounds having a volatility ranging from 70,000 to 100 μg/l in air are referred to as “top notes”) |  |  | Volatility [1, 3]: 1235.24 μg/l air; Type [1, 4]: Top; Volatility ([1]; Table 9, gourmand note): 1235.24 μg/l air; Type [1, 5]: Top; Odor Threshold [2, 3]: 1.75E−02 μg/l air; Odor Value [2, 3]: 7.06E+04; Odor Threshold ([2]; Table 9, gourmand note): 1.75E−02 μg/l air
15 | CC(=O)OC(C)CCC=C(C)CCC=C(C)C (centres unmarked) [1,5,9-TRIMETHYL-4,8-DECADIENYL ACETATE] |  |  |  | 14.74 μg/l air | Bottom | 3.28E−04 μg/l air | 4.49E+04 | Volatility (μg/l air) ([1]; Table 4, watery note): 14.74 μg/l air; Type [1, 11]: bottom (perfuming compounds having a volatility ranging from 49 to 0.1 μg/l in air are referred to as “bottom notes”); Odor Threshold (μg/l air) ([2]; Table 4, watery note): 3.28E−04 μg/l air; Odor Value [2, 12]: 4.49E+04
16 | CCOc1ccc2ccccc2c1 [2-ETHOXYNAPHTHALENE] |  |  |  |  |  |  |  | Volatility (μg/l air) ([1]; Table 7, citrus note): 22.67 μg/l air; Type [1, 13]: Bottom; Odor Threshold (μg/l air) ([2]; Table 7, citrus note): 3.57E−03 μg/l air; Odor Value [2, 14]: 6.35E+03
17 | CCOC(=O)C1OC1(C)c1ccccc1 (centres unmarked) [ETHYL 2,3-EPDXY-3-PHENYLBUTANOATE] |  |  |  | 12.97 μg/l air | Bottom | 2.28E−05 μg/l air | 5.68E+05 | 
18 | CCOC(=O)/C=C/c1ccccc1 [ETHYL (E)-3-PHENYL-2-PROPENOATE] |  |  |  | 20.55 μg/l air | Bottom | 2.38E−05 μg/l air | 8.62E+05 | 
19 | CCOC(=O)CC1(C)OCCO1 [ETHYL 2-METHYL-1,3-DIOXOLANE-2-ACETATE] | Top | 479.20 μg/l air | 1.62E−03 μg/l air | 479.20 μg/l air | TOP (perfuming compounds having a volatility ranging from 70,000 to 100 μg/l in air are referred to as “top notes”) |  |  | Volatility [1, 3]: 479.20 μg/l air; Type [1, 4]: Top; Volatility ([1]; Table 9, gourmand note): 479.20 μg/l air; Type [1, 5]: Top; Odor Threshold [2, 3]: 1.62E−03 μg/l air; Odor Value [2, 3]: 2.95E+05; Odor Threshold ([2]; Table 9, gourmand note): 1.62E−03 μg/l air
20 | CCCCCCOC(=O)CCCCC [HEXYL HEXANOATE] |  |  |  | 105.52 μg/l air | TOP (perfuming compounds having a volatility ranging from 70,000 to 100 μg/l in air are referred to as “top notes”) | 9.98E−02 μg/l air | 1.06E+03 | 
21 | CC1CC(C)(c2ccccc2)CO1 (racemic) | Top | 263.73 μg/l air | 5.04E−04 μg/l air | 263.73 μg/l air | TOP (perfuming compounds having a volatility ranging from 70,000 to 100 μg/l in air are referred to as “top notes”) |  |  | 
22 | CCOCOC1CCCCCCCCCCC1 [(ETHOXYMETHOXY)CYCLODODECANE] |  |  |  |  |  |  |  | Type [1, 6]: Bottom; Volatility ([1]; Table 10, woody note): 6.63 μg/l air; Odor Threshold ([2]; Table 10, woody note): 8.90E−02 μg/l air
23 | CCCCC/C=C\C=C\C(=O)OCC [ethyl (2E,4Z)-2,4-decadienoate] | Bottom | 36.76 μg/l air | 3.07E−04 μg/l air | 36.76 μg/l air | Bottom | 3.07E−04 μg/l air | 1.20E+05 | 
